Assay results taken from article PMC9732672, “Pyrazolyl-s-triazine with indole motif as a novel of epidermal growth factor receptor/cyclin-dependent kinase 2 dual inhibitors” (Frontiers in Chemistry, 2022).
Where two headings read alike, the source gives them in different places.

Columns and labels:
[1] = system: A549 (non-small cell lung cancer) cells; assay: MTT cytotoxicity assay, A549; type: cell-based, human; conditions: read-out: IC50 ± STDEV, A549
Protocol: (§1) The parental MCF7 (breast cancer cell line), A549 (non-small cell lung cancer cell line), and human dermal fibroblast (HDF) (human dermal cell line) cells were obtained from the American Type Culture Collection (ATCC, Manassas, VA, United States). MCF7 and A549 cells were cultured in RPMI 1640 medium (EuroClone, Italy) supplemented with 10% (v/v) heat-inactivated fetal bovine serum (FBS) (EuroClone, Italy), 1% penicillin-streptomycin (EuroClone, Italy), and 2 mM L-glutamine.
(§2) The cytotoxic activity of the tested compounds were tested using MTT assay. […] Then, the cell viability was recored and IC50 values were calcualted. ([Mosmann, 1983]; [Nafie et al., 2020c]).

[2] = system: MCF-7 (breast cancer) cells; assay: MTT cytotoxicity assay, MCF-7; type: cell-based, human; conditions: read-out: IC50 ± STDEV, MCF-7
Protocol: as §1, §2

[3] = system: HDFs (non-cancerous human dermal fibroblasts); assay: MTT cytotoxicity assay, HDFs; type: cell-based; conditions: non-cancerous cells, average ±SD of four independent experiments, read-out: IC50 ± STDEV, HDFs
Protocol: as §1, §2

EGFR = target: T1, EGFR (Homo sapiens, UniProt P00533); assay: EGFR-TK kinase assay (ADP-Glo); type: biochemical; conditions: Mean ± SD of three independent replicates; read-out: EGFR inhibition IC50
T1 construct: purchased Promega V9261
Protocol: EGFR-TK assay kit (ADP-Glo™ kinase assay, Cat No. V9261, Promega, United States) kinase assay was performed to evaluate the capacity of 3h, 3i, and 3j to inhibit EGFR.

CDK-2 = CDK-2 (Homo sapiens, UniProt P24941); assay: CDK-2 enzyme inhibition; type: biochemical; conditions: Mean ± SD of three independent replicates
A549 cells = assay: Flow cytometry, Annexin V/PI staining; type: cell-based, human; conditions: A549, IC50 value, 48 h; for cells undergoing late apoptosis: control 0.16%; for cells undergoing early apoptosis: control 0.42%; for total apoptosis / total apoptotic cell death, fold vs control: control 0.61%; for necrosis-mediated cell death / necrosis-mediated cell death, fold increase: control 0.97%
Protocol: A549 cells were seeded into 6-well culture plates (3-5× 10^5 cells/well) and incubated overnight. […] Next, media supernatants and cells were collected and rinsed with ice-cold PBS. The cells were then suspended in the flow cytometry solutions and cells were stained with Annexin V/PI, and data was acquired using a Cytoflex FACS machine. Data were analyzed using cytExpert software. ([Hisham et al., 2019]; [Khodair et al., 2019]; [Nafie et al., 2020b]).

[4] = average ±SD of four independent experiments
[5] = Homo sapiens, A549, average ±SD of four independent experiments
[6] = Homo sapiens, MCF7, average ±SD of four independent experiments

T1 sequence (P00533 25-1210): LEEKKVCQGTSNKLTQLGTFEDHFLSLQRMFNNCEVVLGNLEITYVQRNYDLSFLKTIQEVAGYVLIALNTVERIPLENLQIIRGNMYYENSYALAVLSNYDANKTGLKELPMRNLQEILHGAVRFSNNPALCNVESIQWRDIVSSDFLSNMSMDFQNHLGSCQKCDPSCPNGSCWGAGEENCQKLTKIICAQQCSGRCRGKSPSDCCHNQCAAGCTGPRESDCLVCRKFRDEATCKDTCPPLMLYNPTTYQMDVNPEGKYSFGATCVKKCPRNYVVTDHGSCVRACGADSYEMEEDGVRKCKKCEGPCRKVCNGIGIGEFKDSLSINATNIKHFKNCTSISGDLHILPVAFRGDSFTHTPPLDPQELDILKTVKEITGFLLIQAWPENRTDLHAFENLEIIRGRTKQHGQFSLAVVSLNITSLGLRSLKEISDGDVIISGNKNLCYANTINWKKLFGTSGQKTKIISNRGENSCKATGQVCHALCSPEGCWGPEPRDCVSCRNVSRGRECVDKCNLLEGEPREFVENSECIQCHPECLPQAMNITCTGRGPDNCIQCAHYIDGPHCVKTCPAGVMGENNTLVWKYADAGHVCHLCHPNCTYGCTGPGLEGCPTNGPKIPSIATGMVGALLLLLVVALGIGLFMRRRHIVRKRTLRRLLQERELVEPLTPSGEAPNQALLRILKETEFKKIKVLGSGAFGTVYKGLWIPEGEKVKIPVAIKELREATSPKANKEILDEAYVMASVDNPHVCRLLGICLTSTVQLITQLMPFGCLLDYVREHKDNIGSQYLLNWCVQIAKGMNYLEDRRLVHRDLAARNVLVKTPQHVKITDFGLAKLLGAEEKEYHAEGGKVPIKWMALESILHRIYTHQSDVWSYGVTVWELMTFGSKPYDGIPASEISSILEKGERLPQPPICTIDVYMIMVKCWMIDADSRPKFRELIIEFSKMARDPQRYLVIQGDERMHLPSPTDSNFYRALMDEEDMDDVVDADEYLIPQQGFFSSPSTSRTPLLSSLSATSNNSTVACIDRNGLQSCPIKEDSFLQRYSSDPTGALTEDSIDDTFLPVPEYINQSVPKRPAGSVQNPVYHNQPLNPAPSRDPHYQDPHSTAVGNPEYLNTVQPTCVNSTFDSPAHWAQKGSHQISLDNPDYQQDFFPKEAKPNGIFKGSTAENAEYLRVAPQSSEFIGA

In the case of “2-(4,6-Di (piperidin-1-yl)-1,3,5-triazin-2-yl)-3-(1H-indol-3-yl)-2,3-dihydro-1H-pyrazole-4-carbonitrile [Compound 5a]”, the IC50 [1, 4] is reported as 66.1 ± 5.71 µM, the IC50 [2, 4] is reported as 65.2 ± 1.43 µM and the IC50 [3] is reported as greater than 500 µM.
`Nc1cc(-c2c[nH]c3ccccc23)nn1-c1nc(N2CCCCC2)nc(N2CCCCC2)n1` [Compound 3a, 1-(4,6-Di (piperidin-1-yl)-1,3,5-triazin-2-yl)-3-(1H-indol-3-yl)-1H-pyrazol-5-amine] gave an IC50 [1, 5] greater than 500 µM, an IC50 [2, 6] greater than 500 µM and an IC50 ([3]; Homo sapiens, Fibroblast) greater than 500 µM. The melting point was 288 to 290 °C.
In the case of `Nc1cc(-c2c[nH]c3ccccc23)nn1-c1nc(N2CCOCC2)nc(N2CCOCC2)n1` [Compound 3b, 1-(4,6-Dimorpholino-1,3,5-triazin-2-yl)-3-(1H-indol-3-yl)-1H-pyrazol-5-amine], the IC50 [1, 5] is reported as 3.08 ± 1.27 µM, the IC50 [2, 6] is reported as 11.7 ± 1.77 µM and the IC50 ([3]; Homo sapiens, Fibroblast) is reported as 4.47 ± 1.43 µM. The melting point was 188 to 189 °C.
`Nc1cc(-c2c[nH]c3ccccc23)nn1-c1nc(N2CCCCC2)nc(N2CCOCC2)n1` [Compound 3c, 3-(1H-Indol-3-yl)-1-(4-morpholino-6-(piperidin-1-yl)-1,3,5-triazin-2-yl)-1H-pyrazol-5-amine] gave an IC50 [1, 5] of 4.82 ± 0.29 µM, an IC50 [2, 6] of 12.6 ± 1.03 µM and an IC50 ([3]; Homo sapiens, Fibroblast) of 6.82 ± 1.34 µM. It also gave a melting point of 178 to 179 °C.
`Nc1cc(-c2c[nH]c3ccccc23)nn1-c1nc(Nc2ccccc2)nc(N2CCCCC2)n1` [Compound 3d, 4-(5-Amino-3-(1H-indol-3-yl)-1H-pyrazol-1-yl)-N-phenyl-6-(piperidin-1-yl)-1,3,5-triazin-2-amine] gave an IC50 [1, 5] of 10.6 ± 2.88 µM, an IC50 [2, 6] of 11.7 ± 4.43 µM and an IC50 ([3]; Homo sapiens, Fibroblast) of 22.9 ± 5.2 µM.
`Nc1cc(-c2c[nH]c3ccccc23)nn1-c1nc(Nc2ccc(Cl)cc2)nc(N2CCCCC2)n1` [Compound 3e, 4-(5-Amino-3-(1H-indol-3-yl)-1H-pyrazol-1-yl)-N-(4-chlorophenyl)-6-(piperidin-1-yl)-1,3,5-triazin-2-amine] gave an IC50 [1, 5] of 9.57 ± 1.26 µM, an IC50 [2, 6] of 15.2 ± 0.74 µM and an IC50 ([3]; Homo sapiens, Fibroblast) of 11.2 ± 0.69 µM. The melting point was 295 to 296 °C.
Work on `Nc1cc(-c2c[nH]c3ccccc23)nn1-c1nc(Nc2ccc(Br)cc2)nc(N2CCCCC2)n1` [Compound 3f, 4-(5-Amino-3-(1H-indol-3-yl)-1H-pyrazol-1-yl)-N-(4-bromophenyl)-6-(piperidin-1-yl)-1,3,5-triazin-2-amine] yielded an IC50 [1, 5] of 14.8 ± 0.83 µM, an IC50 [2, 6] of 13.2 ± 0.55 µM and an IC50 ([3]; Homo sapiens, Fibroblast) of 6.8 ± 1.02 µM. For the same molecule, the melting point was 271 to 274 °C.
In the case of `COc1ccc(Nc2nc(N3CCCCC3)nc(-n3nc(-c4c[nH]c5ccccc45)cc3N)n2)cc1` [Compound 3g, 4-(5-Amino-3-(1H-indol-3-yl)-1H-pyrazol-1-yl)-N-(4-methoxyphenyl)-6-(piperidin-1-yl)-1,3,5-triazin-2-amine], the IC50 [1, 5] is reported as 6.23 ± 0.48 µM, the IC50 [2, 6] is reported as 7.68 ± 0.21 µM and the IC50 ([3]; Homo sapiens, Fibroblast) is reported as 4.36 ± 0.83 µM.
`Nc1cc(-c2c[nH]c3ccccc23)nn1-c1nc(Nc2ccccc2)nc(N2CCOCC2)n1` [Compound 3h, 4-(5-Amino-3-(1H-indol-3-yl)-1H-pyrazol-1-yl)-6-morpholino-N-phenyl-1,3,5-triazin-2-amine] gave an IC50 [1, 5] of 2.65 ± 0.22 µM, an IC50 [2, 6] of 2.66 ± 0.26 µM and an IC50 ([3]; Homo sapiens, Fibroblast) of 14 ± 2.67 µM. The IC50 (EGFR) was 0.0642 ± 0.00312 µM, the IC50 (CDK-2) was 0.112 ± 0.00301 µM and the “cells undergoing late apoptosis” value (A549 cells) was 12%. The “cells undergoing early apoptosis” value (A549 cells) was 19.4%, the total apoptosis (A549 cells) was 31.4% and the “total apoptotic cell death, fold vs control” value (A549 cells) was 51.4 fold. For the same molecule, the necrosis-mediated cell death (A549 cells) was 4.98% and the “necrosis-mediated cell death, fold increase” value (A549 cells) was 5.1 fold.
With `Nc1cc(-c2c[nH]c3ccccc23)nn1-c1nc(Nc2ccc(Br)cc2)nc(N2CCOCC2)n1` [Compound 3j, 4-(5-Amino-3-(1H-indol-3-yl)-1H-pyrazol-1-yl)-N-(4-bromophenyl)-6-morpholino-1,3,5-triazin-2-amine] the IC50 [1, 5] was 2.32 ± 0.21 µM, the IC50 [2, 6] was 3.3 ± 0.32 µM and the IC50 ([3]; Homo sapiens, Fibroblast) was 3.96 ± 0.73 µM. The IC50 (EGFR) was 0.0684 ± 0.00298 µM, the IC50 (CDK-2) was 0.136 ± 0.00314 µM and the “cells undergoing late apoptosis” value (A549 cells) was 8.5%. The “cells undergoing early apoptosis” value (A549 cells) was 22.6%, the total apoptosis (A549 cells) was 31.1% and the “total apoptotic cell death, fold vs control” value (A549 cells) was 50.9 fold. For the same molecule, the necrosis-mediated cell death (A549 cells) was 5.42% and the “necrosis-mediated cell death, fold increase” value (A549 cells) was 5.58 fold.
Molecule `COc1ccc(Nc2nc(N3CCOCC3)nc(-n3nc(-c4c[nH]c5ccccc45)cc3N)n2)cc1` [Compound 3k, 4-(5-Amino-3-(1H-indol-3-yl)-1H-pyrazol-1-yl)-N-(4-methoxyphenyl)-6-morpholino-1,3,5-triazin-2-amine] has an IC50 [1, 5] of 3.64 ± 1.26 µM, an IC50 [2, 6] of 4.11 ± 0.5 µM and an IC50 ([3]; Homo sapiens, Fibroblast) of 8.9 ± 1.07 µM.
